Measurements reported in PMC8187626, “Clostridioides difficile specific DNA adenine methyltransferase CamA squeezes and flips adenine out of DNA helix” (Nature Communications, 2021).

T1: CamA (Clostridioides difficile 630, UniProt Q183J3 1-577)
T1 sequence: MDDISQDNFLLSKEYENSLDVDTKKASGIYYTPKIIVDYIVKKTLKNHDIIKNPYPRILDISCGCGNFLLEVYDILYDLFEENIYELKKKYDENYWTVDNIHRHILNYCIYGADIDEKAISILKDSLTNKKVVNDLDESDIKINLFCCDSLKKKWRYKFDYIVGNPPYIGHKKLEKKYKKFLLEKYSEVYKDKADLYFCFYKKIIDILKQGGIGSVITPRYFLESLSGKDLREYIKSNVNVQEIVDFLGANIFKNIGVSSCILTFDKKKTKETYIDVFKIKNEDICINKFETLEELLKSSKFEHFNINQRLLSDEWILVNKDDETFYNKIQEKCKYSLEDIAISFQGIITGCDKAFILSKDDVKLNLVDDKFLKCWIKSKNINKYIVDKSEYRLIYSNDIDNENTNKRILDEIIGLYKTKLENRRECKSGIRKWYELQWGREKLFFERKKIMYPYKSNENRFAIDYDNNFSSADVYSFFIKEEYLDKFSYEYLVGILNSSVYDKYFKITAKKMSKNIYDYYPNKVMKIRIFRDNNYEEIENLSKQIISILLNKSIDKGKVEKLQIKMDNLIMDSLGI

T2: CamA SeMet (Clostridioides difficile 630, UniProt Q183J3 1-577)
T2 sequence: T1 sequence

B1: co-crystal DNA 13 bp + overhangs (dsDNA)
DNA 1: TTCAAAAAGTCCCA
DNA 2: ATGGGACTTTTTGA

Legend:
CamA [1] = target: T3, CamA (Clostridioides difficile, UniProt Q183J3); experiment: isothermal titration calorimetry, one-site fit; format: binding
T3 construct: gene CD630_27580; full length, 577 residues; N-terminal His-SUMO tag cut by ULP protease leaving His-Met; E. coli Rosetta, plasmid pXC2184; active as monomer

CamA [2] = target: T3, CamA; experiment: MTase-Glo luminescence assay of SAH formation; format: biochemical; details: 20 µM dsDNA substrate (CAAAAA site), 50 nM CamA, 100 mM NaCl, 20 mM Tris-HCl pH 7.5, ~22 °C, 2.5 min
CamA [3] = target: T1, CamA; experiment: X-ray crystallography; no cofactor bound (SAH dissociated); 2.68 A; ITC at 25 C: 200 uM DNA into 18-20 uM CamA, 20 mM HEPES pH 8.0, 0.5 mM TCEP, 5% glycerol, 150 or 250 mM NaCl (cofactor comparison at 250 mM NaCl); details: protein: recombinant; tags: His-SUMO cleaved, leaves N-terminal His-Met; 5' overhang 1 nt at each end (T / A)
CamA SeMet = target: T2, CamA SeMet; experiment: X-ray crystallography; no cofactor; ITC at 25 C: 200 uM DNA into 18-20 uM CamA, 20 mM HEPES pH 8.0, 0.5 mM TCEP, 5% glycerol, 150 or 250 mM NaCl (cofactor comparison at 250 mM NaCl); details: protein: recombinant; tags: His-SUMO cleaved, leaves N-terminal His-Met; 5' overhang 1 nt at each end (T / A)

Row | Molecule | Kd (CamA [1]) | Km (CamA [2]) | binding result (CamA [3]) | binding result (CamA SeMet)
1 | Nc1ncnc2c1ncn2[C@@H]1O[C@H](CSCC[C@H](N)C(=O)O)[C@@H](O)[C@H]1O [SAH] | 8 µM | – | – | –
2 | C[S+](CC[C@H](N)C(=O)O)C[C@H]1O[C@@H](n2cnc3c(N)ncnc32)[C@H](O)[C@@H]1O (stereo partly drawn) [SAM] | 23 to 35 µM | > 17 µM | – | –
3 | Nc1ncnc2c1ncn2[C@@H]1O[C@H](C[C@@H](N)CC[C@H](N)C(=O)O)[C@@H](O)[C@H]1O [sinefungin] | 19 µM | – | – | –
4 | B1 | – | – | binds | binds
